Here are results for 1 sequence from US20080311126A1, “Antisense Oligonucleotides Directed to Ribonucleotide Reducatase R2 and Uses Thereof in Combination Therapies for the Treatment of Cancer” (Genesense Technologies, Inc, priority 2004, published 2008).

What all share (type): in vivo
The test system of series [1] is Caki-1 human renal cancer cells. Nature of the series: Caki-1 renal tumour xenograft in SCID mice, SEQ ID NO:1 and chemotherapeutics. The procedure:
Caki-1 human renal cancer cells (1×10^7 cells in […] of PBS) were subcutanteously injected into the right flank of 6-7 weeks old female SCID mice. After the size of tumour reached an approximate volume of 200 mm^3, 7 days post tumour cell injection, SEQ ID NO:1 was administered by bolus infusion into the tail vein every other day at 10 mg/kg. Control animals received saline alone for the same period. The antitumour effect of SEQ ID NO:1 was further compared to that of two chemotherapeutic agents: 5-FU and vinblastine. 5-FU was administered intraperitoneally at days 7-13, 21-27 and 35-36 with a dose of 13 mg/kg/day, while vinblastin was administered intraperitoneally at days 7, 14, 21, 28 and 35 at a dose of 0.6 mg/kg/week. Antitumour effects of each of these compounds were further compared to those of SEQ ID NO:1 in combination with 5-FU or with vinblastin. The two chemotherapeutic agents were applied as described above, one hour after the treatments with SEQ ID NO:1 when combination treatments occurred on the same day. All treatments were stopped at day 36. A day after the last treatment, tumours were excised from the animals and their weights were measured.

For series [2], the system named is DU145 human prostatic cancer cells. In words: DU145 prostatic tumour xenograft in SCID mice. The procedure: In both experiments, DU145 human prostatic cancer cells (1×10^7 cells in 100 μl of PBS) were subcutaneously injected into the right flank of 6-7 weeks old male SCID mice. After the size of tumour reached an approximate volume of 50 mm^3, 13 FIG. 15A) or 11 (FIG. 15B) days post tumour cell injection, SEQ ID NO:1 was administered by bolus infusion into the tail vein every other day at 10 mg/kg 15 times (FIG. 15A) or 14 times (FIG. 15B), respectively. Control animals received saline alone for the same period. Antitumour effect of SEQ ID NO:1 was further compared to that of mitoxantrone (Novantrone®) alone or in combination. Mitoxantrone was administered intravenously once at the beginning of the treatments at a dose of 2 mg/kg (FIG. 15A) or once a week for four weeks at a reduced dose of 0.8 mg/kg (FIG. 15B). All treatments were stopped at day 42 (FIG. 15A) or 38 (FIG. 15B); respectively. A day after the last treatment, tumours were excised from the animals and their weights were measured.

In series [3] the test system is Caki-1 human renal carcinoma. In words: Caki-1 renal tumour xenograft in SCID mice, SEQ ID NO:1 and interferon alpha. The procedure: Cell Line: Human renal carcinoma cell line (Caki-1) was grown as monolayer culture in Minimum essential medium (α-MEM) supplemented with 10% fetal bovine serum (FEBS), 0.1 mM non-essential amino acid, 1.0 mM sodium pyruvate, 100 U/ml penicillin, 100 μg/ml streptomycin and 0.25 μg/ml amphotericin B and 2 mM L-alanyl-L-glutamine at 37° C. in an atmosphere of 5% CO2 in air. The tumour cells were routinely subcultured twice weekly by trypsin-EDTA treatment. The cells were harvested from subconfluent logarithmically growing culture by treatment with trypsin-EDTA and counted for tumour inoculation.
Tumour Inoculation: An acclimation period of at least 7 days was allowed between animal receipt and commencement of tumour inoculation. When the female SCID mice were 6-7 weeks of age (20-25 g), each mouse was subcutaneously (s.c.) injected with 5×10^6 Caki-1 human renal carcinoma cells in 0.1 ml of PBS at the right flank of the mice to induce tumour growth.
Dose-Preparation and Treatment: The dose for SEQ ID NO:1 was formulated using the following procedure. From a concentrated stock solution (usually prepared in ddH2O at a concentration of 50 mg/ml and kept at −80° C.), SEQ ID NO:1 was diluted with saline to achieve a final target concentration of 1 or 2.5 mg/ml on the first day of dosing. Enough SEQ ID NO:1 was diluted so that the compound could be administered by bolus infusion into the tail vein every other day for the duration of the experiment. Recombinant interferon alfa-2b (Intron A™) was utilized according to the dose and treatment schedules below. The treatments were started 7 days after the tumour cell inoculation when the tumour size reached an approximate volume of 125 mm^3. Each treatment group contained 10 tumour-bearing mice. Routes of administration are indicated as follows: intravenous (i.v.) and intratumoural (i:t.).
Groups and Treatments: The following treatment groups were evaluated: • 1. Saline treated group-1: saline 0.1 ml/mouse/48 hours, i.v., n=10 • 2. Saline treated group-2: saline 0.05 ml/mouse/5 days/week, i.t., n=10 • 3. […] Intron A 10^3 unit/5 days/week treated group: 10^3 unit Intron A in 0.05 ml saline, i.t., n=10 • 6. Intron A 10^5 unit/5 days/week treated group: 10^5 unit Intron A in 0.05 ml saline, i.t., n=10 • 7. SEQ ID NO:1 1 mg/kg Plus Intron A 10^3 treated group: “3+5”, n=10 • 8. SEQ ID NO:1 1 mg kg Plus Intron A 10^5 treated group: “3+6”, n=10 • 9. SEQ ID NO:1 2.5 mg/kg Plus Intron A […], n=10 • 10. SEQ ID NO:1 2.5 mg/kg Plus Intron A 10^5 treated group: “4+6”, n=10
Mice received 25 treatments with SEQ ID NO:1 and 30 treatments with Intron A. The dosing schedule for Intron A was: treatment with Intron A for 3 consecutive weeks, 1 week off, and treatment with Intron A again for another 3 consecutive weeks. The dosing schedule for SEQ ID NO:1 was treatment with SEQ ID NO:1 every other day for the duration of the experiment.
Endpoints: The effects of SEQ ID NO:1 and Intron A on tumour growth were determined. Tumour sizes were measured every week from day 7 after the tumour cell inoculation in two dimensions using a caliper, and the volume was expressed in mm^3 using the formula: V=0.5 a×b^2, where a and b are the long and short diameters of the tumour, respectively. Mean tumour volumes calculated from each measurement were then plotted in a standard graph to compare the anti-tumour efficacy to that of controls. A day after the last treatment, tumours were excised from the animals and their weights were measured.
A second independent in vivo study was conducted as described in Example 1 utilizing SCID mice (female, 6 weeks old) and Caki-1 (human renal carcinoma cell line) to test the efficacy of SEQ ID NO:1 in combination with IFN alpha Briefly, 5×10^6 Caki-1 human renal carcinoma cells in 0.1 ml of PBS were injected subcutaneously at the right flank of the mice to induce tumour growth. Treatments started on the seventh day after tumour cell injection. […]

“Also recorded” adds a separate entry of the source.

As to “GGCTAAATCGCTCCACCAAG (chemistry not given here) [SEQ ID NO: 1, antisense oligonucleotide that hybridizes to the coding region of human ribonucleotide reductase R2 mRNA]”, the “Tumour weight as % of saline control” value is given as 3.3% in series [1] (Caki (renal), Mouse CD-1) and 41% in series [2] (DU145 (prostatic), Mouse SCID, second of two value columns (two independent experiments)). In addition, the “antitumour effect (tumour weight)” value in series [1] (SEQ ID NO:1 10 mg/kg every other day i.v., 5-FU 13 mg/kg/day i.p., vinblastin 0.6 mg/kg/week i.p.) was “significant delay of tumour growth; also recorded: superior to the inhibitory effects observed with each of two chemotherapeutic compounds”; in series [2] (FIG. 15A, SEQ ID NO:1 10 mg/kg 15 times, mitoxantrone 2 mg/kg once) it was “significant delay of tumour growth”. Further, the “anti-tumour efficacy (tumour volume, tumour weight)” value in series [3] (Example 2, SEQ ID NO:1 1 or 2.5 mg/kg/48 hours i.v., Intron A 10^3 or 10^5 unit 5 days/week i.t.) was “significant anti-tumour efficacy”; in series [3] (Example 3, SEQ ID NO:1 2.5 or 5 mg/kg every 2 days i.v., Intron 10^5 unit 5 days/week i.t.) it was “significant anti-tumour efficacy”; in series [3] (Example 4, oligonucleotide 2.5 mg/kg every 2 days i.v., Intron A 10^5 unit 5 days/week i.t.), “significant anti-tumour efficacy”.
